Reference: patent US20180000782A1, “THERAPEUTIC AGENT FOR KERATOCONJUNCTIVE DISORDERS” (priority 2012, published 2018)

Legend:
[1] = tested on: normal rabbit primary keratocytes; experiment: Suppression of three-dimensional collagen gel degradation in normal rabbit primary keratocytes (Example 1); format: cell-based; settings: R667 0.1-1000 nM; stimulant 10 ng/ml and Plasminogen 60 μg/ml; 48 hours of culturing; FIG. 1
Description: Normal rabbit corneal cells were used to assess the suppression effect of a tested compound on three-dimensional collagen gel degradation in accordance with the method of Nishida et al (Investigative Ophthalmology & Visual Science 42: 1247-1253 (2001)).
Primary keratocytes collected from a normal rabbit eye ball was grown to a confluent state and detached from a culture slide with 0.05% Trypsin-EDTA. After washing in a serum free medium (product number 11095; Gibco), the number of cells were counted. The obtained primary keratocytes were mixed with the type I collagen solution Cellmatrix Type I-A (product number 637-00653; Nitta Gelatin Inc.) and Reconstitution Buffer (product number 635-00791; Nitta Gelatin Inc.) and dispensed into a 24-well plate so that the final concentration would be 1×10^5 cells/well to make a collagen gel. […]
After 48 hours of culturing, the supernatant was ultrafiltrated, 100 μl of concentrated hydrochloric acid was added and heated, and the collagen was hydrolyzed. […] The amount of hydroxyproline, which is the collagen degradation product in the solution, was measured in accordance with the method of Bergman et al (Analytical Chemistry 35(12): 1961-1965 (1963)) to assess the effect of suppressing collagen degradation of RARγ agonist A. The results are shown in FIG. 1.

[2] = tested on: primary subconjunctival fibroblasts; experiment: Suppression of three-dimensional collagen gel contraction, primary subconjunctival fibroblasts (Example 2); format: cell-based, rabbit; settings: TGF-β1 1 ng/ml, RARγ agonist A 1, 10, 100 nM, after 48 hours, FIG. 2
Description: (§1) Primary subconjunctival fibroblasts and primary keratocytes were used to assess the suppression effect of a tested compound on three-dimensional collagen gel contraction in accordance with the method of Nishida et al. As in Example 1, primary subconjunctival fibroblasts were grown and detached from a culture slide. After washing, a cell suspension was made. The resulting suspension (1.1×10^7 cells/well MEM), type I collagen solution (5 mg/ml), 10×MEM, Reconstitution Buffer, and water were mixed on ice at 0.2:7:1:1:1.8 (volume ratio). A culture dish coated with 1% BSA was inoculated with 0.5 ml of the mixture, which was incubated for one hour at 37° C. to make a collagen gel. Then, 0.5 ml of serum free media, to which a certain amount (1 ng/ml) of TGF-β1 (R&D Systems) and RARγ agonist A at each of the concentrations 1 nM, 10 nM, and 100 nM were added, were each added onto the above-described gel. The gel, together with a gel to which an agent-free serum-free medium was added, was continuously incubated at 37° C. The diameter of gels was measured from the time when 24 hours has past.

primary keratocytes [3] = experiment: Suppression of three-dimensional collagen gel contraction, primary keratocytes (Example 2); format: cell-based, rabbit; settings: TGF-β1, FIG. 3
Description: as §1, with “past. The gel diameter was measured for primary keratocytes in a similar manner to the primary subconjunctival fibroblasts.” for “past.”

primary keratocytes [4] = experiment: Suppression of three-dimensional collagen gel degradation in primary keratocytes by RARγ agonist A, B or C (Example 3); format: cell-based, rabbit; settings: R667 1 nM, CD437 1 nM and 10 nM, BMS961 10 nM; stimulant IL-1β 10 ng/ml and Plasminogen 60 μg/ml; 48 hours; FIG. 4
Description: As in Example 1, primary keratocytes were grown and detached from a culture slide. After washing, a cell suspension was made. The resulting suspension (1.1×10^7 cells/well MEM), type I collagen solution (5 mg/ml), 10×MEM, Reconstitution Buffer, and water were mixed on ice at 0.2:7:1:1:1.8 (volume ratio). A culture dish coated with 1% BSA was inoculated with 0.5 ml of the mixture, which was incubated for one hour at 37° C. to make a collagen gel.
After 48 hours of culturing, collagen was hydrolyzed and the amount of hydroxyproline, which is the collagen degradation product, was measured by the same method as Example 1 to assess the effect of suppressing collagen degradation of each RARγ agonist.

MMP-1 = experiment: Suppression of expression and activation of MMP-1, western blot of keratocyte supernatant; format: cell-based, rabbit; settings: R667 1×10^−6 to 1×10^−2 μM, 12 hours of pre-treatment; 0.1 ng/ml, 24 hours; FIG. 5A
Description: (§2) It is believed that secretion or expression of protease, i.e., matrix metalloproteinases (MMP), is associated with the degradation of type I collagen. In this regard, suppression of expression and activation of MMP-1, 2, 3, and 9 by RARγ agonist A was investigated. Primary keratocytes collected from a normal rabbit eye ball were cultured for 24 hours in a serum-free MEM medium. RARγ agonist A ([…]) ([…] concentration: 1×10^-6 μM, 1×10^-5 μM, 1×10^-4 μM, 1×10^-3 μM, 1×10^-2 μM) was added to the obtained culture solution and 12 hours of pre-treatment was performed. As a positive control, 10 nM of dexamethasone (Dex), which is a synthetic steroid, was added and pre-treatment was similarly performed. Then, IL-113 (0.1 ng/ml) was added for stimulation, and the supernatant was collected after 24 hours. The following western blot analysis and gelatin zymography analysis were used on the collected culture solution. After developing the supernatant of the collected culture solution in SDS-PAGE using 10% polyacrylamide gel, the separated proteins were transferred onto a nitrocellulose filter. Then, non-specific sites on the nitrocellulose filter were blocked and incubated for 24 hours at 4° C. with anti-human MMP-1 antibodies (R&D Systems) and anti-rabbit MMP-3 antibodies (Daiichi Fine Chemical Co., Ltd). ECL® reagent (GE Healthcare) was used for detection.

MMP-3 = experiment: Suppression of expression and activation of MMP-3, western blot of keratocyte supernatant; format: cell-based, rabbit; settings: R667 1×10^−6 to 1×10^−2 μM, 12 hours of pre-treatment; IL-113 0.1 ng/ml, 24 hours; FIG. 5A
Description: as §2

MMP-2 = experiment: Suppression of expression and activation of MMP-2, gelatin zymography of keratocyte supernatant; format: cell-based, rabbit; settings: R667 1×10^−6 to 1×10^−2 μM, 12 hours of pre-treatment; 0.1 ng/ml, 24 hours; FIG. 5B
Description: (§3) It is believed that secretion or expression of protease, i.e., matrix metalloproteinases (MMP), is associated with the degradation of type I collagen. In this regard, suppression of expression and activation of MMP-1, 2, 3, and 9 by RARγ agonist A was investigated. Primary keratocytes collected from a normal rabbit eye ball were cultured for 24 hours in a serum-free MEM medium. RARγ agonist A ([…]) ([…] concentration: 1×10^-6 μM, 1×10^-5 μM, 1×10^-4 μM, 1×10^-3 μM, 1×10^-2 μM) was added to the obtained culture solution and 12 hours of pre-treatment was performed. As a positive control, 10 nM of dexamethasone (Dex), which is a synthetic steroid, was added and pre-treatment was similarly performed. Then, IL-113 (0.1 ng/ml) was added for stimulation, and the supernatant was collected after 24 hours. The following western blot analysis and gelatin zymography analysis were used on the collected culture solution. After developing the supernatant of the collected culture solution on SDS-PAGE using 10% polyacrylamide gel containing 0.1% of gelatin, it was incubated for one hour at room temperature with a TBS solution containing 2.5% Triton X-100. The gel after incubation was dyed with a solution of Coomassie Brilliant Blue (Wako Pure Chemical Industries, Ltd.) and decolored with a 5% methanol-7.5% acetic acid solution (Nacalai Tesque, Inc).

MMP-9 = experiment: Suppression of expression and activation of MMP-9, gelatin zymography of keratocyte supernatant; format: cell-based, rabbit; settings: R667 1×10^−6 to 1×10^−2 μM, 12 hours of pre-treatment; IL-113 0.1 ng/ml, 24 hours; FIG. 5B
Description: as §3

[5] = tested on: male Japanese white rabbits; experiment: Suppression of corneal opacity and ulceration, LPS injected into the corneal stroma; format: in vivo, rabbit; settings: 0.1% R667 (24 mM), 50 μl instillation, four times daily until day 10; 1% LPS into the corneal stroma; FIG. 6B
Description: Systemic anesthesia was applied to male Japanese white rabbits (body weight 2.5-3.5 kg, 27 rabbits) by intramuscular administration of a solution of a mixture of ketamine and xylazine. Then, topical anesthesia was applied by a 0.4% oxybuprocaine hydrochloride instillation. Furthermore, 30 μl of 1% LPS (Sigma Aldrich) was injected into the corneal stroma of one eye, but not in the other eye.
50 μl of 0.1% PBS/0.1% polysorbate 80 solution containing RARγ agonist A (R667: 0.1%, 24 mM) was instillatively administered to the rabbits injected with LPS twice after the injection on the day of LPS injection and four times daily thereafter until day 10 by using a micropipette. As a control, a 0.1% PBS/0.1% polysorbate 80 solution free of RARγ agonist A (Vehicle) was similarly administered. FIGS. 6A and 6B show representative examples of a control and a case where RARγ agonist A was administered.

Question: Which results are given for `CC1(C)CCC(C)(C)c2cc(Cn3cccn3)c(/C=C/c3ccc(C(=O)O)cc3)cc21` [RARγ agonist A, (E)-4-(2-{3-[(1H-pyrazole-1-yl)methyl]-5,5,8,8-tetramethyl-5,6,7,8-tetrahydronaphthalene-2-yl}vinyl)benzoic acid]?
Answer: effect of suppressing collagen degradation (amount of hydroxyproline) [1]: dosage-dependent effect of suppressing keratoconjunctive collagen degradation; suppression of collagen gel contraction (diameter of collagen gel) [2]: can suppress; suppression of collagen gel contraction (diameter of collagen gel) (primary keratocytes [3]): can suppress; effect of suppressing collagen degradation (ratio of amount of hydroxyproline) (primary keratocytes [4]): exhibited an effect of suppressing keratoconjunctive collagen degradation; expression and activation of MMP-1 (bands of Pro-MMP-1 and active MMP-1) (MMP-1): concentration-dependently suppresses; expression and activation of MMP-3 (bands of Pro-MMP-3 and active MMP-3) (MMP-3): concentration-dependently suppresses; expression and activation of MMP-2 (bands of Pro-MMP-2 and active MMP-2) (MMP-2): concentration-dependently suppresses; expression and activation of MMP-9 (bands of Pro-MMP-9 and active MMP-9) (MMP-9): concentration-dependently suppresses; corneal opacity and ulceration [5]: corneal opacity and ulceration were not observed
